PubChem BioAssay AID1508610 (The Scripps Research Institute Molecular Screening Center, 2020)
Active and inactive are the calls of the source. No rule for the calls is given here.

Target: G-protein coupled receptor 151 (Homo sapiens) (UniProt Q8TDV0)
Assay: GPR151 activator potency, dose response, cell-based (AID 1508610)
Details: cell-based GPR151 activation reporter

Sequence of G-protein coupled receptor 151 (Homo sapiens) (Q8TDV0 whole entry, looked up): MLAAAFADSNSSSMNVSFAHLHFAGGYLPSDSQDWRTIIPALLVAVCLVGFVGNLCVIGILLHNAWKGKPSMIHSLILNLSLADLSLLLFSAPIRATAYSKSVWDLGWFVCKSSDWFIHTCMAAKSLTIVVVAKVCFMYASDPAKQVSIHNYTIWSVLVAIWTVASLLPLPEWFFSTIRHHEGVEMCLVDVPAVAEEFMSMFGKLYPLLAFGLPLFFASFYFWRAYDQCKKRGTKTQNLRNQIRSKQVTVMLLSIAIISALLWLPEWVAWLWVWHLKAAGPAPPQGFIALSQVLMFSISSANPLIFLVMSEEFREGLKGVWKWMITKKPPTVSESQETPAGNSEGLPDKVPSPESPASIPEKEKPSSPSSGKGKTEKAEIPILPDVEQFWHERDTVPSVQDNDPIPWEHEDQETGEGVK

EC50 | SMILES
> 27.6 µM (inactive) | COc1ccc(-c2csc(/C(C#N)=C/Nc3ccc(F)c([N+](=O)[O-])c3)n2)cc1OC
> 28 µM (inactive) | COc1cccc2oc(-c3ccccc3)cc(=O)c12
> 28.4 µM (inactive) | Cn1c(N)c(S(=O)(=O)N2CCN(c3ccccc3Cl)CC2)c(=O)n(C)c1=O
0.0014 µM | COc1cc(C2CC(=O)c3c([nH]c(C(=O)OCCSC)c3C)C2)cc(OC)c1OC (stereo unspecified)
> 23.9 µM (inactive) | CCN(CC)S(=O)(=O)c1ccc(C(=O)Nc2nnc(C(C)C)s2)cc1
> 28.9 µM (inactive) | C/C=C/C(=O)N(CC)c1ccccc1C
> 28 µM (inactive) | COc1cc(C2NC(=O)NC(C)=C2C(C)=O)cc(Br)c1OCc1ccccc1 (stereo unspecified)
> 28 µM (inactive) | COc1cccc(-c2nnc3n2N=C(c2cccc([N+](=O)[O-])c2)CS3)c1
> 27 µM (inactive) | N#CC1=C(N)Oc2n[nH]c(C34CC5CC(CC(C5)C3)C4)c2C1c1cccnc1 (stereo unspecified)
> 40 µM (inactive) | COc1ccc2nccnc2c1[N+](=O)[O-]
> 28 µM (inactive) | Nc1nc2n(n1)C(c1ccccc1Cl)CC(c1ccc(F)cc1)N2 (stereo unspecified)
> 27.6 µM (inactive) | CCN1CCc2c(sc(NC(=O)c3ccc(S(=O)(=O)N4CCCC(C)C4)cc3)c2C(=O)OC)C1 (stereo unspecified)
> 29 µM (inactive) | Cc1ccc(-c2csc3nnc(SCC(=O)NC(N)=O)n23)cc1
> 28 µM (inactive) | CCN(CC)C(=O)C(=O)c1c(C)n(C)c2ccccc12
> 28 µM (inactive) | CSc1cccc(CN2CCN(Cc3ccccc3F)C(CCO)C2)c1 (stereo unspecified)
> 27.5 µM (inactive) | O=C(Nc1ncc([N+](=O)[O-])s1)c1ccc(Br)cc1F
> 29.3 µM (inactive) | O=C(Nc1nc2ccccc2[nH]1)c1ccc(Cl)cc1Cl
> 27 µM (inactive) | N=c1sc2c(n1CC(=O)c1ccccc1)CCCC2
> 35.1 µM (inactive) | Cc1ccc(-c2nc3ccccc3[nH]2)cc1
> 28 µM (inactive) | COc1ccc(C(=O)Nc2nc(C)cs2)c(OC)n1
> 33 µM (inactive) | O=C(NCCOc1ccccc1)c1ccc(-c2ccc(N3CCOCC3)nc2)s1
> 28 µM (inactive) | CSc1ccc(/C=N/NC(=O)C[n+]2ccccc2)cc1
> 28 µM (inactive) | CCCCNC(=O)/C(=C/c1ccccc1)NC(=O)/C=C/c1ccco1
> 28 µM (inactive) | CN(C)c1cccc2c(S(=O)(=O)Nc3nccnc3-c3ccc(C=O)cc3)cccc12
> 28 µM (inactive) | CC(C)c1ccc2oc3nc(N)c(C(=O)O)cc3c(=O)c2c1
> 28 µM (inactive) | CN(C)CCN(C)C(=O)c1cccc(OC2CCN(C3CCSCC3)CC2)c1

EC50 | SMILES
> 28.6 µM (inactive) | Cc1ccsc1C(=O)Nc1nc2ccc(S(C)(=O)=O)cc2s1
> 28 µM (inactive) | Cc1ccc(CCNS(=O)(=O)c2ccc3c(c2)OCCN3C)cc1
> 28 µM (inactive) | CCOC(=O)COc1ccc2c(=O)c(Oc3cccc(OC)c3)coc2c1
> 22.5 µM (inactive) | CCSCCOC(=O)C1=C(C)NC(=O)NC1c1ccc(OC(F)(F)F)cc1 (stereo unspecified)
> 28.1 µM (inactive) | COc1ccc(-c2ccc(C(N)=O)s2)cn1
> 32 µM (inactive) | Cc1nc(/C=C/c2ccc(Cl)cc2)sc1C(=O)O
> 28.1 µM (inactive) | COc1ccc(-c2ccc(C(N)=O)s2)cc1
> 28 µM (inactive) | COc1ccc(Cl)cc1NC(=O)Nc1cccc([N+](=O)[O-])c1C
> 28 µM (inactive) | O=C(NC1(C(F)(F)F)NC(=O)N(c2ccc(F)cc2)C1=O)c1ccncc1 (stereo unspecified)
> 28.9 µM (inactive) | O=[N+]([O-])c1ccc(/C=C/c2ccc(O)cc2)cc1
> 31.6 µM (inactive) | O=C(c1ccc(CNS(=O)(=O)c2ccc(Cl)cc2)cc1)N1CCCC1
> 28 µM (inactive) | CC(C)=CCN1CCN(Cc2sccc2C)CC1CCO (stereo unspecified)
> 28 µM (inactive) | Cc1ccc2cc(CN(CC3CCCO3)C(=O)C3CCC3)c3nnnn3c2c1 (stereo unspecified)
0.00152 µM | COc1ccccc1C1c2c(oc3ccc(C)cc3c2=O)C(=O)N1CCN1CCOCC1 (stereo unspecified)
> 28 µM (inactive) | Cn1c(=O)c(=O)n(C)c2cc(S(=O)(=O)N3CCN(C(=O)c4ccco4)CC3)ccc21
> 28 µM (inactive) | CC(NC(=O)c1ccco1)c1nnc2n1CCN(Cc1cccc(F)c1)CC2 (stereo unspecified)
> 28 µM (inactive) | COc1ccc(-c2ccc(/C=N/N3C(=O)C4C5C=CC(C6CC56)C4C3=O)o2)c([N+](=O)[O-])c1 (stereo unspecified)
> 28.2 µM (inactive) | COc1ccc(-c2nc(Nc3ccccc3F)c3ccccc3n2)cc1OC
> 28 µM (inactive) | Cc1ccc(S(=O)(=O)Cn2nnnc2CN2CCN(c3ccccc3F)CC2)cc1
inactive | c1ccc(Oc2nc(NC3CC3)c3ncn(-c4ccsc4)c3n2)cc1
> 28 µM (inactive) | COc1cccc(/C=N/NC(=O)C(C)Nc2ccc(C)cc2)c1O (stereo unspecified)
0.00579 µM | O=C(Cn1[nH]c(=O)c2ccccc2c1=O)Nc1cccnc1
> 31.4 µM (inactive) | N#Cc1cccc(C(=O)NC2CCCC2)c1
> 28 µM (inactive) | CCCCNc1c(N2CCCC(C(=O)OCC)C2)c(=O)c1=O (stereo unspecified)
> 28 µM (inactive) | O=C(Nc1cc(C(F)(F)F)ccc1F)C1CCCC1
> 28 µM (inactive) | CCOC(=O)N1CCN(C(=S)Nc2ccc(C)cc2)CC1

EC50 | SMILES
> 28 µM (inactive) | CCOCCCNC(=O)c1cc([N+](=O)[O-])ccc1Cl
> 28.4 µM (inactive) | N#Cc1ccc(NC(=O)COC(=O)CCC(=O)c2ccc3c(c2)OCCO3)cc1
> 28 µM (inactive) | COc1ccc2o/c(=N\NC(=O)c3ccccc3Nc3ccccc3)c(C(N)=O)cc2c1
> 28 µM (inactive) | Cc1ccc(N(CC(=O)NCCC2=CCCCC2)S(C)(=O)=O)cc1Cl
> 28 µM (inactive) | COc1ncc(-c2cncc(-c3cccc(O)c3)n2)c(OC)n1
> 28.4 µM (inactive) | Cc1ccc2nc(NC(=O)C3=COCCO3)sc2c1
> 28 µM (inactive) | COc1cccc(NC(=O)c2oc3ccc4c(c3c2C)C(=O)CC(C)(C)O4)c1
> 28 µM (inactive) | C/C(=C\c1ccccc1)C(=O)NCCc1ccccc1
> 27.4 µM (inactive) | COC(=O)c1cc2c(N3CCC(Cc4ccccc4)CC3)ncnc2s1
> 28 µM (inactive) | O=C(O)c1ccc(COc2cccc(CO)c2)cc1
> 28.6 µM (inactive) | Cc1ccc(C(=O)CSc2[nH]c(=O)ncc2C)cc1
> 28 µM (inactive) | CCOC(=O)C(=O)N1CCN(c2ccccc2)CC1
> 27.7 µM (inactive) | Cc1sc(NC(=O)c2ccco2)c(CN2CCN(CCO)CC2)c1C
> 28 µM (inactive) | Cc1ccc(Oc2nc3ccccn3c(=O)c2/C=C(\C#N)C(N)=O)c(C)c1
> 28 µM (inactive) | O=C(/C=C/c1ccc(O)cc1)c1ccc(O)cc1O
> 28 µM (inactive) | O=C(O)c1cc(N=Cc2ccco2)ccc1O
> 28 µM (inactive) | O=C1CCCCN1c1cccc(NS(=O)(=O)c2cc(F)ccc2F)c1
> 28 µM (inactive) | CCn1c(SCC(=O)c2ccccc2)nnc1C(C)C
> 28 µM (inactive) | Cc1ccc(NC(=O)/C(C#N)=C\c2ccccc2O)cc1C
> 25.5 µM (inactive) | CCOc1ccc(-c2csc(/C(C#N)=C/c3ccccc3OCC)n2)cc1
> 28 µM (inactive) | COc1cccc(OC)c1C(=O)Nc1ccc(Br)cn1
> 28 µM (inactive) | CC(C)CC(C(=O)Nc1cccc([N+](=O)[O-])c1)N1C(=O)c2ccccc2C1=O (stereo unspecified)
> 23.5 µM (inactive) | Cc1cc(Br)ccc1Nc1nc(-c2ccccc2F)nc2ccccc12
> 28 µM (inactive) | Cc1cc(Br)ccc1NC(=O)c1ccc(C#N)cc1F
> 28 µM (inactive) | Cc1ccc(/C=N/NC(=O)Cc2cccn2C)s1
inactive | CC1CCN(S(=O)(=O)c2ccc(NC(=O)CSc3nc4ccccc4o3)cc2)CC1

EC50 | SMILES
> 27.6 µM (inactive) | COc1ccc(CCNC(=O)c2sc3nc(C)nc(N4CCCCC4)c3c2C)cc1OC
> 28 µM (inactive) | Cc1ccc(CNC(=O)c2csnn2)cc1
> 28 µM (inactive) | O=C(Nc1ccc(-c2cccc(F)c2)cc1)C1CCCN(C(=O)C2CCOCC2)C1 (stereo unspecified)
> 28.1 µM (inactive) | O=C(NCCO)c1ccc2nc(-c3csc4ccccc34)sc2c1
> 20.9 µM (inactive) | O=C(Nc1ccc(Br)cc1)c1ccc(Br)c(S(=O)(=O)N2CCCCC2)c1
> 25.9 µM (inactive) | NC(=O)c1ccc(-c2ccc(N3CCOCC3)nc2)s1
> 28 µM (inactive) | CCOc1ccc(C(=O)N2CCC(c3ncncc3-c3ccncc3)CC2)o1
> 28 µM (inactive) | COc1ccc(S(=O)(=O)N(C)C)c(Cl)c1Cl
> 25.7 µM (inactive) | CCCNC(=O)c1ccc2nc(-c3csc4ccccc34)sc2c1
> 14.8 µM (inactive) | O=C(Nc1ccc(Oc2cccc(Oc3ccc(NC(=O)c4ccccc4F)cc3)c2)cc1)c1ccccc1F
> 28 µM (inactive) | C#CCN1CCc2cc(OC)c(OC)cc2C1C (stereo unspecified)
> 28 µM (inactive) | COc1ccc(NC(=O)C2C3CCC(C3=C(C)C)C2C(=O)O)cc1 (stereo unspecified)
> 28 µM (inactive) | O=C(O)c1cccc(COc2ccc(CO)cc2Cl)c1
> 28 µM (inactive) | Cc1ccc(NC(=O)CN(C)S(=O)(=O)c2ccc(Br)cc2)cc1Cl
> 26.6 µM (inactive) | CCOc1ccc(S(=O)(=O)N(CC(=O)NCCSc2ccccc2)c2ccccc2)cc1
> 32.1 µM (inactive) | O=C(NCc1ccc(F)cc1)c1cc(-c2ccccc2Cl)nc2ccccc12
> 37.5 µM (inactive) | COc1cccc(-c2nc(-c3ccccn3)no2)c1
> 28 µM (inactive) | O=C1NC(=O)C(=Cc2cc(Br)ccc2OCc2ccccc2F)C(=O)N1
> 28.2 µM (inactive) | O=c1oc2cc(O)ccc2cc1-c1ccccc1
> 28.3 µM (inactive) | COc1cccc(-c2ccc(SCC(=O)Nc3cc(C)on3)nn2)c1
> 28.4 µM (inactive) | Cc1ccnc(SCc2cc(=O)c(OC(=O)c3cc(Cl)ccc3[N+](=O)[O-])co2)n1
> 26.2 µM (inactive) | COc1cccc(Nc2nc(Nc3cc(C)ccc3C)nc(N3CCOCC3)n2)c1
> 27.9 µM (inactive) | COc1ccc(-c2ccc(C(=O)Nc3ccccc3)s2)cc1
